Results published in the supplement of paper PMC10307832.

Tests used:
Experiment in all cases: relative viability (nuclei count vs DMSO), 5 days (fraction); higher = more cells survive
RO-3306 + Pictilisib = compound: C1=CC2=C(C=CC(=C2)C=C3C(=O)NC(=NCC4=CC=CS4)S3)N=C1 [RO-3306] + CS(=O)(=O)N1CCN(Cc2cc3nc(-c4cccc5[nH]ncc45)nc(N4CCOCC4)c3s2)CC1 [Pictilisib] (partner 1 µM)
In short: (§1)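 Lung cancer cell lines were seeded in 1536-well plates and dosed by pin tool the next day, with either a single drug or a fixed anchor-drug dose combined with five library-drug doses (not always all listed) spaced in √10 steps. Five days later, one step fixed the cells and stained their nuclei (final 0.05% Triton X-100, 1% formaldehyde, 1 ug/ml Hoechst), and nuclei were counted on 4× images. Relative viability is the nuclei count in treated wells divided by the count in vehicle wells, and each value is the median of duplicate plates.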

RO-3306 + Olaparib = compound: C1=CC2=C(C=CC(=C2)C=C3C(=O)NC(=NCC4=CC=CS4)S3)N=C1 [RO-3306] + O=C(c1cc(Cc2n[nH]c(=O)c3ccccc23)ccc1F)N1CCN(C(=O)C2CC2)CC1 [Olaparib] (partner 8 µM)
In short: as §1

[1] = compound: O=S(=O)(c1ccccc1)N(CC(F)(F)F)c1ccc(C(O)(C(F)(F)F)C(F)(F)F)cc1 + CC(=O)c1c(C)c2cnc(Nc3ccc(N4CCNCC4)cn3)nc2n(C2CCCC2)c1=O [Palbociclib] (partner 0.5 µM)
In short: as §1

[2] = compound: O=S(=O)(c1ccccc1)N(CC(F)(F)F)c1ccc(C(O)(C(F)(F)F)C(F)(F)F)cc1 + NC(=O)Nc1cc(-c2cccc(F)c2)sc1C(=O)N[C@H]1CCCNC1 [AZD7762] (partner 0.2 µM)
In short: as §1

[3] = compound: O=S(=O)(c1ccccc1)N(CC(F)(F)F)c1ccc(C(O)(C(F)(F)F)C(F)(F)F)cc1 + O=C(c1cc(Cc2n[nH]c(=O)c3ccccc23)ccc1F)N1CCN(C(=O)C2CC2)CC1 [Olaparib] (partner 8 µM)
In short: as §1

Row | Cell Line | relative viability (RO-3306 + Pictilisib; first compound 0.01 µM) | relative viability (RO-3306 + Pictilisib; first compound 0.03162 µM) | relative viability (RO-3306 + Pictilisib; first compound 0.1 µM) | relative viability (RO-3306 + Pictilisib; first compound 0.3162 µM) | relative viability (RO-3306 + Pictilisib; first compound 1 µM) | relative viability (RO-3306 + Olaparib; first compound 0.01 µM) | relative viability (RO-3306 + Olaparib; first compound 0.03162 µM) | relative viability (RO-3306 + Olaparib; first compound 0.1 µM) | relative viability (RO-3306 + Olaparib; first compound 0.3162 µM) | relative viability (RO-3306 + Olaparib; first compound 1 µM) | relative viability ([1]; first compound 0.8 µM) | relative viability ([1]; first compound 2.53 µM) | relative viability ([1]; first compound 8 µM) | relative viability ([2]; first compound 0.8 µM) | relative viability ([2]; first compound 2.53 µM) | relative viability ([2]; first compound 8 µM) | relative viability ([3]; first compound 0.8 µM) | relative viability ([3]; first compound 2.53 µM) | relative viability ([3]; first compound 8 µM)
1 | HCC-78 | 0.198 | 0.213 | 0.209 | 0.224 | 0.229 | 0.849 | 0.714 | 0.93 | 0.938 | 0.762 | 0.522 | 0.445 | 0.475 | 0.647 | 0.552 | 0.535 | 0.908 | 0.816 | 0.765
2 | 201T | 0.671 | 0.616 | 0.668 | 0.663 | 0.559 | 0.861 | 0.855 | 0.82 | 0.828 | 0.828 | 0.365 | 0.354 | 0.371 | 0.797 | 0.617 | 0.637 | 0.815 | 0.793 | 0.819
3 | ChaGo-K-1 | 0.692 | 0.701 | 0.449 | 0.69 | 0.49 | 0.443 | 0.402 | 0.41 | 0.362 | 0.223 | 1 | 0.895 | 0.877 | 0.952 | 0.888 | 0.791 | 0.466 | 0.427 | 0.388
4 | NCI-H1993 | – | 0.956 | 0.686 | 0.743 | 0.897 | 0.993 | 0.878 | 1.02 | 0.995 | 0.415 | 0.57 | 0.511 | 0.594 | 0.69 | 0.657 | 0.774 | 1.1 | 0.843 | 0.954
5 | EMC-BAC-2 | 0.503 | 0.511 | 0.54 | 0.531 | 0.483 | 0.472 | 0.459 | 0.468 | 0.481 | 0.448 | 0.525 | 0.473 | 0.5 | 0.486 | 1.09 | 1.05 | 0.471 | 0.47 | 0.483
6 | HCC-15 | 0.707 | 0.603 | 0.717 | 0.815 | 0.542 | 0.666 | 0.628 | 0.756 | 0.701 | 0.693 | 0.703 | 0.567 | 0.642 | 1.18 | 1.17 | 1.16 | 0.737 | 0.581 | 0.644
7 | EKVX | 0.402 | 0.362 | 0.449 | 0.498 | 0.431 | 1.03 | 0.821 | 0.846 | 0.895 | 0.704 | 0.401 | 0.341 | 0.324 | 0.664 | 0.708 | 0.503 | 0.836 | 0.757 | 0.661
8 | PC-14 | 0.892 | 0.539 | 0.648 | 0.592 | 0.511 | 0.298 | 0.232 | 0.235 | 0.227 | 0.237 | 0.345 | 0.254 | 0.198 | 0.216 | 0.228 | 0.216 | 0.201 | 0.198 | 0.204
9 | LK-2 | 0.482 | 0.499 | 0.64 | 0.681 | 0.534 | 0.735 | 0.566 | 0.841 | 0.577 | 0.734 | 0.508 | 0.742 | 0.705 | 0.488 | 0.682 | 0.412 | 0.918 | 0.845 | 0.816
10 | LCLC-97TM1 | – | 0.18 | 0.165 | 0.254 | 0.183 | 0.406 | 0.479 | 0.315 | 0.367 | 0.278 | – | 0.206 | 0.236 | – | 0.241 | 0.234 | – | 0.355 | 0.257
11 | NCI-H2405 | 0.369 | 0.433 | 0.496 | 0.534 | 0.427 | 0.844 | 0.863 | 0.887 | 0.899 | 0.732 | 0.554 | 0.506 | 0.55 | 0.907 | 0.665 | 0.705 | 0.846 | 0.819 | 0.777
12 | EPLC-272H | 0.3 | 0.211 | 0.275 | 0.255 | 0.287 | 0.752 | 0.461 | 1.22 | 0.647 | 0.291 | 0.357 | 0.286 | 0.261 | 0.226 | 0.203 | 0.203 | 0.888 | 0.859 | 0.645
13 | RERF-LC-KJ | 0.563 | 0.487 | 0.591 | 0.552 | 0.435 | 0.888 | 0.902 | 0.837 | 0.835 | 1.08 | 1.1 | 0.909 | 0.905 | 0.973 | 0.889 | 0.825 | 0.853 | 0.893 | 0.88
14 | HARA | 0.367 | 0.247 | 0.457 | 0.394 | 0.358 | 0.795 | – | 0.764 | 0.632 | 0.763 | 0.246 | 0.244 | 0.27 | 0.437 | – | 0.318 | 0.995 | – | 0.678
15 | NCI-H838 | 0.411 | 0.34 | 0.432 | 0.505 | 0.393 | 0.894 | 0.562 | 0.768 | 0.808 | 0.869 | 0.241 | 0.244 | 0.276 | 0.998 | 0.894 | 0.871 | 0.937 | 0.736 | 0.86
16 | NCI-H1792 | 0.288 | – | 0.288 | 0.287 | 0.224 | 0.544 | – | 0.484 | 0.51 | 0.436 | 0.614 | 0.549 | 0.453 | 0.841 | 0.616 | 0.441 | 0.402 | 0.274 | 0.189
17 | NCI-H727 | 0.355 | 0.356 | 0.438 | 0.319 | 0.41 | 0.666 | 0.722 | 0.844 | 0.724 | 0.621 | 0.621 | 0.623 | 0.618 | 0.549 | 0.604 | 0.526 | 0.657 | 0.706 | 0.704
18 | BEN | 0.559 | 0.487 | 0.532 | 0.697 | 0.623 | 1.09 | 0.893 | 1.01 | 1.16 | 1.02 | 0.506 | 0.504 | 0.454 | 0.724 | 0.717 | 0.689 | 0.889 | 0.875 | 0.876
19 | NCI-H1437 | 0.403 | 0.364 | 0.372 | 0.472 | 0.449 | 0.628 | 0.564 | 0.614 | 0.588 | 0.619 | 0.308 | 0.268 | 0.304 | 1.08 | 0.995 | 0.849 | 0.598 | 0.591 | 0.597
20 | NCI-H1915 | 0.919 | 0.827 | 0.878 | 0.917 | 0.615 | 0.276 | 0.235 | 0.263 | 0.246 | 0.255 | 0.46 | 0.577 | 0.525 | 0.712 | 0.731 | 0.682 | 0.266 | 0.263 | 0.269
21 | LU99A | 0.33 | 0.292 | 0.343 | 0.284 | 0.295 | 0.275 | 0.233 | 0.233 | 0.25 | 0.2 | 0.407 | 0.343 | 0.374 | 0.459 | 0.401 | 0.318 | 0.253 | 0.248 | 0.392
22 | NCI-H1975 | 0.321 | 0.259 | 0.261 | 0.324 | 0.211 | 1.07 | 0.711 | 0.835 | 0.918 | 0.953 | 0.71 | 0.567 | 0.644 | 0.632 | 0.519 | 0.669 | 1.02 | 0.762 | 0.875
23 | LCLC-103H | 0.461 | 0.556 | 0.561 | 0.655 | 0.608 | 0.836 | 0.776 | 0.772 | 0.733 | 0.784 | 0.503 | 0.523 | 0.488 | 0.841 | 0.826 | 0.948 | 0.813 | 0.737 | 0.772
24 | NCI-H3122 | 0.602 | 0.56 | 0.624 | 0.611 | 0.525 | 0.707 | 0.561 | 0.604 | 0.61 | 0.604 | 0.143 | 0.148 | 0.202 | 1.02 | 0.935 | 0.801 | 0.678 | 0.599 | 0.654
25 | CAL-12T | 0.359 | – | – | 0.411 | 0.462 | 0.808 | 0.717 | 0.668 | 0.777 | 0.737 | 0.318 | 0.33 | 0.412 | 0.482 | 0.566 | 0.522 | 0.686 | 0.616 | 0.591
26 | NCI-H1355 | 0.423 | 0.396 | 0.493 | 0.512 | 0.316 | 0.682 | 0.659 | 0.738 | 0.8 | 0.786 | 0.377 | 0.42 | 0.359 | 0.789 | 0.733 | 0.703 | 0.824 | 0.737 | 0.719
27 | NCI-H650 | 0.983 | 0.928 | 0.792 | 0.777 | 0.916 | 0.316 | 0.373 | 0.37 | 0.382 | 0.361 | 0.322 | 0.329 | 0.27 | 0.814 | 1.22 | 0.996 | 0.405 | 0.387 | 0.359
28 | NCI-H322M | 0.493 | 0.486 | 0.485 | 0.556 | 0.585 | 0.817 | 0.743 | 0.773 | 0.785 | 0.696 | 0.503 | 0.497 | 0.51 | 0.542 | 0.643 | 0.583 | 0.81 | 0.734 | 0.857
